One series addresses S1P1 receptor (Homo sapiens, UniProt P21453). The series can be described thus: S1P1 receptor agonistic activity (PathHunter cell strain, chemiluminescent signal detection). Format: cell-based. Particulars: PathHunter cells, agonist mode, 37° C. 90-180 minutes. As to the method: Test Method: […] Cell Processing i) Thaw the PathHunter cell strain according to the standard procedures. ii) Seed the cell in the 20 μL 384-microwell plate and incubate at 37° C. for an appropriate period. 2. Agonist i) For agonist testing, cells were incubated with the sample to be test to initiate a reaction; ii) The stock solution to be tested has been diluted 5 folds to be a buffer solution; iii) Inject the 5-fold diluted solution (5 μL) into the cells and incubate at 37° C. for 90-180 minutes. […] 3. Signal Detection i) Add 12.5 μL or 15 μL PathHunter detection reagent (50 vol. %) in one portion. Then, incubate at room temperature for 1 hour and generate the detection signal; ii) Use PerkinElmer Evision™ instrument to read the microwell plate to proceed with chemiluminescent signal detection. 4. Data Analysis i) Use CBIS data analysis system for the compound activity analysis. ii) Calculation formula: […]

The nature of series [1]: Evaluation of compound pharmacokinetics in SD rats (intravenous injection and oral administration). Format: in vivo. Particulars: male, Sprague Dawley, rat, plasma, 2 mg/kg, 2 mpk; for clearance: read-out: Clearance rate; for AUC: read-out: Drug concentration integral: AUC; for half-life: read-out: Half-life period: T1/2 (converted); for bioavailability: oral, read-out: Fraction of bioavailability: F. As to the method: Aim of the experiments: To test pharmacokinetics of the compounds in SD rats. Experimental Materials: Sprague Dawley rats (male, 200-300 g, 7-9 weeks old, Shanghai Slack) Experimental Procedure: The rodent pharmacokinetic characteristics of the compounds after intravenous injection and oral administration were tested by the standard protocol. In the experiments, the transparent solution was prepared with the compounds to be test. The rats were administered single intravenous injection and oral administration. The solvent for intravenous injection and oral administration was aqueous hydroxypropyl β-cyclodextrin solution or normal saline solution with a certain concentration. Collect the blood samples within 24 hours and centrifuge at 3000 G for 15 minutes. Separate the supernatant to obtain the plasma samples. A volume of acetonitrile solution containing internal standard was added 4 times as the sample to precipitate the protein. The supernatant was obtained after centrifuge. An equal volume of water was added and then centrifuge again to collect the supernatant. The LC-MS/MS method was used to quantitatively analyze the blood drug concentration and the pharmacokinetic parameters such as peak concentration, peak time, clearance rate, half-life period, area under the curve of the drug concentration, and fraction of bioavailability, etc. were calculated.

Bounds are passed on as bounds.

Chain of S1P1 receptor (P21453 whole entry): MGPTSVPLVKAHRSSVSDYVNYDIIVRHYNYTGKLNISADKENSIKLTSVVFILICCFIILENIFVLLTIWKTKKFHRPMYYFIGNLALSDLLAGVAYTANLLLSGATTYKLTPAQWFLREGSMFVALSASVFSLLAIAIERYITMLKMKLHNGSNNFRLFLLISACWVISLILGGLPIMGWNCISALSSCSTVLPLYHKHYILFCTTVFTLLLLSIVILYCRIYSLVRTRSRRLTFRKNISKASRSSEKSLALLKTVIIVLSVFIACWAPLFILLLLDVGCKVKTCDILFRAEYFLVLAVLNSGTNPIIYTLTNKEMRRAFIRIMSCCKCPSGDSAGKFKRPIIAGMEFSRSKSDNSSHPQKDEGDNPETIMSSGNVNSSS

For the compound `CC(C)Oc1ccc(-c2nc(-c3cccc4c3CC3CC(=O)N(CCO)C43)no2)cc1OC(F)F` (stereo not shown) [Example 40], at S1P1 receptor, the EC50 was less than 10 nM. In addition, in series [1], the clearance was found to be 14.1 mL/min/kg, the AUC stood at 0.444 µM·h, the half-life was 10.7 h and the bioavailability is 82.3%.

For the compound `CC(C)Oc1ccc(-c2nc(-c3cccc4c3C[C@@H]3CC(=O)N([C@H](C)CO)C43)no2)cc1C#N` (stereo partly shown) [Example 56], the EC50 on S1P1 receptor was less than 10 nM. Further, in series [1], the clearance stood at 14.6 mL/min/kg, the AUC came to 3.32 µM·h, the half-life is 1.63 h and the bioavailability was 66.7%.

For the origin of these results see patent publication US20210300908A1, “S1P1 AGONIST AND APPLICATION THEREOF” (SHIJIAZHUANG SAGACITY SRUG SEVELOPMENT CO., LTD., priority 2016, published 2021).
